# Measured values reported in BindingDB's records for doi:10.1016/s0960-894x(01)00005-1 (Graduate School of Bioscience and Biotechnology, 2001).
# How the values were obtained:
# [1] = Inhibitory activity against peptide binding to the RRE RNA was determined
# [2] = Dissociation constant for TAR RNA
Kd [2],SMILES,IC50 [1]
–,"N=C(N)NCCCC(N)C(=O)NCC1OC(OC2C(N)CC(N)C(O)C2O)C(N)C(O)C1O [2-Amino-5-guanidino-pentanoic acid [(4R,5S,6S)-5-amino-6-((2R,3R,4R)-4,6-diamino-2,3-dihydroxy-cyclohexyloxy)-3,4-dihydroxy-tetrahydro-pyran-2-ylmethyl]-amide]",460 nM
30 nM,N=C(N)NCCCC(NC(=O)c1ccc2ccc3cccc4ccc1c2c34)C(=O)NCC1OC(OC2C(N)CC(N)C(O)C2O)C(N)C(O)C1O (stereo not drawn) [Neamine derivative],–
290 nM,"NC1CC(N)C(OC2OC(CNC(=O)c3ccc4ccc5cccc6ccc3c4c56)C(O)C(O)C2N)C(O)C1O [Pyrene-1-carboxylic acid [(4R,5S,6S)-5-amino-6-((2R,3R,4R)-4,6-diamino-2,3-dihydroxy-cyclohexyloxy)-3,4-dihydroxy-tetrahydro-pyran-2-ylmethyl]-amide]",–
